Data on 24 compounds can be found in patent US10246462B2, “Chemokine receptor modulators and uses thereof” (FLX Bio, Inc., priority 2016, dated 2019).

SMILES strings stand for the structures. Structures can show the parent of a compound that is named as a salt.

The target of this test is CCR4 (Homo sapiens (Human), UniProt P51679). The experiment in a line: Calcium mobilization (Ca Flux) assay. The class given is cell-based. As for the experimental part:
Calcium Mobilization Assay. Calcium mobilization experiments may be performed by labeling the human T-cell line CEM with […] dye (45 min at room temperature), washing with PBS, and re-suspending into flux buffer (HBSS with 1% FBS).
In general terms: Calcium assays in cells follow changes in intracellular calcium, usually with a dye or a luminescent sensor.

Sequence of CCR4 (P51679 whole entry): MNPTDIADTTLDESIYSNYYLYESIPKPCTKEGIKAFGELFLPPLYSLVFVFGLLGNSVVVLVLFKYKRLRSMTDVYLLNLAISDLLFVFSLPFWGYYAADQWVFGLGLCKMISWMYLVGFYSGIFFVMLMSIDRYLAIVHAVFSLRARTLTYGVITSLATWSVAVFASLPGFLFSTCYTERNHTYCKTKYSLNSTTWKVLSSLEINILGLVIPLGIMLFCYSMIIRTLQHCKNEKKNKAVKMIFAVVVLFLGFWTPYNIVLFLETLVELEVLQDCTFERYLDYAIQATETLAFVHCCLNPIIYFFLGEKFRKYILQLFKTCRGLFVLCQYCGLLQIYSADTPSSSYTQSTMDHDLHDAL

The term IC50 denotes the midpoint of a concentration-inhibition curve. For `Cc1nn([C@H](C)c2ccc(Cl)cc2Cl)c2nc(N3CCC(N4CCC[C@H]4CCC(=O)O)CC3)cnc12` [Example 51, 3-((S)-1-(1-(1-((R)-1-(2,4-Dichlorophenyl)ethyl)-3-methyl-1H-pyrazolo[3,4-b]pyrazin-6-yl)piperidin-4-yl)pyrrolidin-2-yl)propanoic acid 2,2,2-trifluoroacetate], the concentration for half-maximal inhibition (IC50) fell in the range of 100 to 500 nM.
As for `Cc1nn([C@H](C)c2ccc(Cl)cc2Cl)c2nc(N3CC[C@H](N4CCC[C@H]4CCS(N)(=O)=O)[C@H](C)C3)cnc12` [Example 52, 2-((S)-1-((3R,4S)-1-(1-((R)-1-(2,4-Dichlorophenyl)ethyl)-3-methyl-1H-pyrazolo[3,4-b]pyrazin-6-yl)-3-methylpiperidin-4-yl)pyrrolidin-2-yl)ethane-1-sulfonamide hydrochloride], the figure is under 100 nM; as for `Cc1nn([C@H](C)c2ccc(Cl)cc2Cl)c2nc(N3CC[C@@H](N4CCC[C@H]4CCS(N)(=O)=O)[C@@H](C)C3)cnc12` [Example 53, 2-((S)-1-((3S,4R)-1-(1-((R)-1-(2,4-Dichlorophenyl)ethyl)-3-methyl-1H-pyrazolo[3,4-b]pyrazin-6-yl)-3-methylpiperidin-4-yl)pyrrolidin-2-yl)ethane-1-sulfonamide hydrochloride], 100 to 500 nM; as for `Cc1nn([C@H](C)c2ccc(Cl)cc2Cl)c2nc(N3CCC(N4CCC[C@H]4CC(F)(F)C(=O)O)C(C)C3)cnc12` (stereo partly drawn) [Example 58, 3-((2S)-1-(1-(1-((R)-1-(2,4-Dichlorophenyl)ethyl)-3-methyl-1H-pyrazolo[3,4-b]pyrazin-6-yl)-3-methylpiperidin-4-yl)pyrrolidin-2-yl)-2,2-difluoropropanoic acid 2,2,2-trifluoroacetate], over 500 nM.
With `Cc1nn([C@H](C)c2ccc(Cl)cc2Cl)c2nc(N3CCC(N4CCC[C@H]4CC(O)C(=O)O)C(C)C3)cnc12` (stereo partly drawn) [Example 59, 3-((2S)-1-(1-(1-((R)-1-(2,4-Dichlorophenyl)ethyl)-3-methyl-1H-pyrazolo[3,4-b]pyrazin-6-yl)-3-methylpiperidin-4-yl)pyrrolidin-2-yl)-2-hydroxypropanoic acid 2,2,2-trifluoroacetate] the figure was 100 to 500 nM; with `Cc1nn([C@H](C)c2ccc(Cl)cc2Cl)c2nc(N3CCC(N4CCC[C@H]4C(C)CC(=O)O)C(C)C3)cnc12` (stereo partly drawn) [Example 60, 3-((2S)-1-(1-(1-((R)-1-(2,4-Dichlorophenyl)ethyl)-3-methyl-1H-pyrazolo[3,4-b]pyrazin-6-yl)-3-methylpiperidin-4-yl)pyrrolidin-2-yl)butanoic acid 2,2,2-trifluoroacetate], 100 to 500 nM.
Take `Cc1nn([C@H](C)c2ccc(Cl)cc2Cl)c2nc(N3CCC(N4CCC(F)CC4)C(C)C3)cnc12` (stereo partly drawn) [Example 61, 1-((R)-1-(2,4-Dichlorophenyl)ethyl)-6-(4-fluoro-3′-methyl-[1,4′-bipiperidin]-1′-yl)-3-methyl-1H-pyrazolo[3,4-b]pyrazine hydrochloride]: the IC50 was in the range of 100 to 500 nM.
As for `C[C@H](c1ccc(Cl)cc1Cl)n1nc(C#N)c2ncc(N3CCC(N4CCCC(CO)C4)CC3)nc21` (stereo partly drawn) [Example 62, 1-((R)-1-(2,4-Dichlorophenyl)ethyl)-6-(3-(hydroxymethyl)-[1,4′-bipiperidin]-1′-yl)-1H-pyrazolo[3,4-b]pyrazine-3-carbonitrile hydrochloride], the figure is 100 to 500 nM.
`Cc1nn([C@H](C)c2ccc(Cl)cc2Cl)c2nc(N3CC[C@H](N4CCC[C@H]4CO)[C@H](C(N)=O)C3)cnc12` [Example 63, (3R,4S)-1-(1-((R)-1-(2,4-Dichlorophenyl)ethyl)-3-methyl-1H-pyrazolo[3,4-b]pyrazin-6-yl)-4-((S)-2-(hydroxymethyl)pyrrolidin-1-yl)piperidine-3-carboxamide hydrochloride]: the half-maximal inhibitory concentration (IC50) is 100 to 500 nM.
For the compound `C[C@H](c1ccc(Cl)cc1Cl)n1nc(C#N)c2ncc(N3CC[C@H](N4CCC[C@H]4C(=O)O)[C@H](C(C)(C)O)C3)nc21` [Example 64, ((3R,4S)-1-(3-Cyano-1-((R)-1-(2,4-dichlorophenyl)ethyl)-1H-pyrazolo[3,4-b]pyrazin-6-yl)-3-(2-hydroxypropan-2-yl)piperidin-4-yl)-L-proline hydrochloride], the half-maximal inhibitory concentration (IC50) was over 500 nM.
With `Cc1nn([C@H](C)c2ccc(Cl)cc2Cl)c2nc(N3CC[C@H](N4CCC[C@@H](CC(=O)O)C4)[C@H](CO)C3)cnc12` [Example 65, 2-((3S,3′R,4′S)-1′-(1-((R)-1-(2,4-Dichlorophenyl)ethyl)-3-methyl-1H-pyrazolo[3,4-b]pyrazin-6-yl)-3′-(hydroxymethyl)-[1,4′-bipiperidin]-3-yl)acetic acid hydrochloride] the figure was 100 to 500 nM.
As for `Cc1nn([C@H](C)c2ccc(Cl)cc2Cl)c2nc(N3CCC(C4CCCNC4)C(C)C3)cnc12` (stereo partly drawn) [Example 66, 1-((R)-1-(2,4-Dichlorophenyl)ethyl)-3-methyl-6-(3′-methyl-[3,4′-bipiperidin]-1′-yl)-1H-pyrazolo[3,4-b]pyrazine hydrochloride], the figure is 100 to 500 nM; as for `Cc1nn([C@H](C)c2ccc(Cl)cc2Cl)c2nc(N3CCC(C4CCCN(CCC(=O)O)C4)C(C)C3)cnc12` (stereo partly drawn) [Example 67, 3-(1′-(1-((R)-1-(2,4-Dichlorophenyl)ethyl)-3-methyl-1H-pyrazolo[3,4-b]pyrazin-6-yl)-3′-methyl-[3,4′-bipiperidin]-1-yl)propanoic acid hydrochloride], 100 to 500 nM.
With `Cc1nn([C@H](C)c2ccc(Cl)cc2Cl)c2nc(C3=CCC(N4CCC[C@H]4CO)CC3)cnc12` (stereo partly drawn) [Example 68, ((2S)-1-(4-(1-((R)-1-(2,4-Dichlorophenyl)ethyl)-3-methyl-1H-pyrazolo[3,4-b]pyrazin-6-yl)cyclohex-3-en-1-yl)pyrrolidin-2-yl)methanol] the figure was 100 to 500 nM.
Take `C[C@@H]1C=C(c2cnc3c(C#N)nn([C@H](C)c4ccc(Cl)cc4Cl)c3n2)CC[C@@H]1N1CCC[C@H]1CO` [Example 69, 1-((R)-1-(2,4-Dichlorophenyl)ethyl)-6-((3R,4S)-4-((S)-2-(hydroxymethyl)pyrrolidin-1-yl)-3-methylcyclohex-1-en-1-yl)-1H-pyrazolo[3,4-b]pyrazine-3-carbonitrile hydrochloride]: the IC50 lay in the range of 100 to 500 nM.
Take `Cc1nn([C@H](C)c2ccc(Cl)cc2Cl)c2nc(C3=CCC(N4CCC[C@H]4C(=O)O)C(C)C3)cnc12` (stereo partly drawn) [Example 70, (4-(1-((R)-1-(2,4-Dichlorophenyl)ethyl)-3-methyl-1H-pyrazolo[3,4-b]pyrazin-6-yl)-6-methylcyclohex-3-en-1-yl)-L-proline trifluoroacetate]: the 50% inhibitory concentration (IC50) lay within 100 to 500 nM.
With `Cc1nn([C@H](C)c2ccc(Cl)cc2Cl)c2nc(C3=CC[C@H](N4CCC[C@H]4CCC(=O)O)[C@H](C)C3)cnc12` [Example 71, 3-((S)-1-((1S,6R)-4-(1-((R)-1-(2,4-Dichlorophenyl)ethyl)-3-methyl-1H-pyrazolo[3,4-b]pyrazin-6-yl)-6-methylcyclohex-3-en-1-yl)pyrrolidin-2-yl)propanoic acid hydrochloride] the figure was under 100 nM.
As for `CC1C=C(c2cnc3c(C#N)nn([C@H](C)c4ccc(Cl)cc4Cl)c3n2)CCC1N1CCC[C@H]1CCC(=O)O` (stereo partly drawn) [Example 73, 3-((2S)-1-(4-(3-Cyano-1-((R)-1-(2,4-dichlorophenyl)ethyl)-1H-pyrazolo[3,4-b]pyrazin-6-yl)-2-methylcyclohex-3-en-1-yl)pyrrolidin-2-yl)propanoic acid 2,2,2-trifluoroacetate], the figure is 100 to 500 nM; as for `C[C@H](c1ccc(Cl)cc1Cl)n1nc(C#N)c2ncc(C3=CC[C@@H](N4CCC[C@H]4CO)[C@@H](C)C3)nc21` [Example 75, 1-((R)-1-(2,4-Dichlorophenyl)ethyl)-6-((4R,5S)-4-((S)-2-(hydroxymethyl)pyrrolidin-1-yl)-5-methylcyclohex-1-en-1-yl)-1H-pyrazolo[3,4-b]pyrazine-3-carbonitrile], 100 to 500 nM; as for `C[C@@H]1CC(c2cnc3c(C#N)nn([C@H](C)c4ccc(Cl)cc4Cl)c3n2)=CC[C@@H]1N1CCC[C@H]1CO` [Example 76, 1-((R)-1-(2,4-Dichlorophenyl)ethyl)-6-((4S,5R)-4-((S)-2-(hydroxymethyl)pyrrolidin-1-yl)-5-methylcyclohex-1-en-1-yl)-1H-pyrazolo[3,4-b]pyrazine-3-carbonitrile], under 100 nM.
As for `Cc1nn([C@H](C)c2ccc(Cl)cc2Cl)c2nc(C3=CCC(N4CCC[C@H]4CCC(N)=O)[C@H](C)C3)cnc12` (stereo partly drawn) [Example 77, 3-((S)-1-((1S,6R)-4-(1-((R)-1-(2,4-Dichlorophenyl)ethyl)-3-methyl-1H-pyrazolo[3,4-b]pyrazin-6-yl)-6-methylcyclohex-3-en-1-yl)pyrrolidin-2-yl)propanamide 2,2,2-trifluoroacetae], the figure is under 100 nM; as for `Cc1nn([C@H](C)c2ccc(Cl)cc2Cl)c2nc(C3=CCC(N4CCC[C@H]4CO)C(C)C3)cnc12` (stereo partly drawn) [Example 78, ((2S)-1-(4-(1-((R)-1-(2,4-Dichlorophenyl)ethyl)-3-methyl-1H-pyrazolo[3,4-b]pyrazin-6-yl)-6-methylcyclohex-3-en-1-yl)pyrrolidin-2-yl)methanol], under 100 nM.
Turning to `CC1CC(c2cnc3c(C#N)nn([C@H](C)c4ccc(Cl)cc4Cl)c3n2)=CCC1N1CCC[C@H]1C(N)=O` (stereo partly drawn) [Example 79, (2S)-1-(4-(3-Cyano-1-((R)-1-(2,4-dichlorophenyl)ethyl)-1H-pyrazolo[3,4-b]pyrazin-6-yl)-6-methylcyclohex-3-en-1-yl)pyrrolidine-2-carboxamide hydrochloride], the IC50 is under 100 nM.
With `C[C@H](c1ccc(Cl)cc1Cl)n1nc(C#N)c2ncc(C3=CC[C@@H](N4CCC[C@H]4C(N)=O)[C@@H](C)C3)nc21` [Example 80, (S)-1-((1R,6S)-4-(3-Cyano-1-((R)-1-(2,4-dichlorophenyl)ethyl)-1H-pyrazolo[3,4-b]pyrazin-6-yl)-6-methylcyclohex-3-en-1-yl)pyrrolidine-2-carboxamide hydrochloride] the figure was 100 to 500 nM.
